Laboratory results as given in PMC7312458, “The Structural Basis of the Binding of Various Aminopolycarboxylates by the Periplasmic EDTA-Binding Protein EppA from Chelativorans sp. BNC1” (International Journal of Molecular Sciences, 2020).
“And” between values parts separate entries of the source, which are not always exact repeats. Identical values can stand only once. Like-named read-outs stand apart in the source and are kept apart here.

Tests used:
EppA [1] = target: T1, EppA (Chelativorans sp. BNC1, UniProt Q11H97); assay: Isothermal titration calorimetry of wild-type EppA with chelators and metal chelates; type: binding
T1 sequence (Q11H97 entry or part of it): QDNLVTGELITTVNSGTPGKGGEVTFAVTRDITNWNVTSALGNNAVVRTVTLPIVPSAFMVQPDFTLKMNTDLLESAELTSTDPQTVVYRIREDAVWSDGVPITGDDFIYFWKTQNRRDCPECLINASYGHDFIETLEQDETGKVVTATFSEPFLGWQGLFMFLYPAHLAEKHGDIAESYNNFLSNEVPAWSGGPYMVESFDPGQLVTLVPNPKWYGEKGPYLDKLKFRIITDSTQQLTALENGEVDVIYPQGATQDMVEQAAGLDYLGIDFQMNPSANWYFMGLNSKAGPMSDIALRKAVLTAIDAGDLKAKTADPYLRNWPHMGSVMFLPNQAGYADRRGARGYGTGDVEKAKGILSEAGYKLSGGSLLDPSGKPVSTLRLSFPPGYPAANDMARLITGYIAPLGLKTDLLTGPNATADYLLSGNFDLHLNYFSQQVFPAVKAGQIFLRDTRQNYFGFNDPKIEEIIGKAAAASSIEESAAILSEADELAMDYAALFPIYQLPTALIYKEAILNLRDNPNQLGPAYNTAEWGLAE

R56A EppA mutant = R56A EppA mutant (Chelativorans sp. BNC1, UniProt Q11H97, R56A); assay: biochemical
R56A EppA mutant, sequence (Q11H97 27-563, stated change not applied): as the sequence (Q11H97 entry or part of it) above
Description: (§1) All primers were ordered from Invitrogen (Carlsbad, CA, USA).
(§2) Isothermal calorimetric titrations were performed in a MicroCal iTC200 (Malvern Panalytical Ltd.; Malvern, UK). All titrations were performed at 25 °C and stirred at 750 rpm. […] EppA–ligand binding curves were corrected for heats of dilution by subtracting reference titrations of ligands at the same concentrations into a buffer without EppA. Data were fitted to a single-site model as implemented into the Origin 7 MicroCal Data Analysis software analysis package (Malvern Panalytical Ltd.; Malvern, UK) and then plotted in Excel.

R480A EppA mutant = R480A EppA mutant (Chelativorans sp. BNC1, UniProt Q11H97, R480A); assay: biochemical
R480A EppA mutant, sequence (Q11H97 27-563, stated change not applied): as the sequence (Q11H97 entry or part of it) above
Description: as §1, §2

R74A EppA mutant = R74A EppA mutant (Chelativorans sp. BNC1, UniProt Q11H97, R74A); assay: biochemical
R74A EppA mutant, sequence (Q11H97 27-563, stated change not applied): as the sequence (Q11H97 entry or part of it) above
Description: as §1, §2

K470A EppA mutant = K470A EppA mutant (Chelativorans sp. BNC1, UniProt Q11H97, K470A); assay: biochemical
K470A EppA mutant, sequence (Q11H97 27-563, stated change not applied): as the sequence (Q11H97 entry or part of it) above
Description: as §1, §2

EppA [2] = target: T1, EppA; conditions: earlier report; cited from earlier work
[3] = ITC, wild-type EppA, 25 °C, single replicate, n.b. = no binding
[4] = ITC, wild-type EppA, 25 °C, single-site model, single replicate, n.b. = no binding

Row | Compound | ∆H (EppA [1]; [3]) | ∆S (EppA [1]; [3]) | Kd (EppA [1]; [4]) | ∆H (EppA [1]) | ∆S (EppA [1]) | binding by EppA (in words) (EppA [1]; ITC, wild-type EppA) | also measured
1 | O=C([O-])CN(CCN(CC(=O)O)CC(=O)O)CC(=O)[O-].[Ba+2] [BaEDTA] | n.b. | n.b. | n.b. |  |  |  | 
2 | O=C(O)CN(CCN(CC(=O)O)CC(=O)O)CC(=O)O.[Ca+2] [CaEDTA] |  |  |  | -2.917 ± 0.038 kcal/mol | 16.0 cal mol^−1 K^−1 |  | binding by EppA (in words) (EppA [1]): bound
3 | O=C([O-])CN(CCOCCOCCN(CC(=O)O)CC(=O)O)CC(=O)[O-].[Ca+2] [CaEGTA] | n.b. | n.b. | n.b. |  |  | not | 
4 | O=C(O)CN(CCN(CC(=O)O)CC(=O)O)CC(=O)O.[Cd+2] [CdEDTA] | -0.555 ± 0.002 kcal/mol | 28.1 cal mol^−1 K^−1 |  |  |  | did not bind | 
5 | O=C([O-])CN(CCN(CC(=O)[O-])CC(=O)[O-])CC(=O)[O-].[Co+2] [CoEDTA] | n.b. | n.b. | n.b. |  |  | did not bind | 
6 | O=C(O)CN(CCN(CC(=O)O)CC(=O)O)CC(=O)O.[Cr+3] [CrEDTA] |  |  |  | -2.573 ± 0.145 kcal/mol | 30.5 cal mol^−1 K^−1 |  | 
7 | O=C([O-])CN(CCN(CC(=O)[O-])CC(=O)[O-])CC(=O)[O-].[Cu+2] [CuEDTA] | n.b. | n.b. | n.b. |  |  | did not bind | 
8 | O=C(O)CNCCNCC(=O)O [EDDA, ethylenediamine-N,N′-diacetate, reference compound] |  |  |  | -0.851 ± 0.893 kcal/mol | 26.7 cal mol^−1 K^−1 |  | Kd (EppA [1]; ITC, wild-type EppA, 25 °C, single-site model, single replicate, n.b. = no binding, read-out: Kd): 588 nM and 340 nM
9 | O=C(O)CN(CCN(CC(=O)O)CC(=O)O)CC(=O)O [EDTA, ethylenediaminetetraacetate] |  |  |  | -2.283 kcal/mol and -2.283 ± 0.07 kcal/mol and -2.283 ± 0.070 kcal/mol | 29 cal mol^−1 K^−1 |  | Kd (EppA [1]; Kd, ITC, wild-type EppA, 25 °C, single replicate): 9.52 ± 6.25 nM; Kd (EppA [1]; Kd, ITC, wild-type EppA, 25 °C, single-site model, single replicate, n.b. = no binding): 9.5 ± 6 nM; Kd (R56A EppA mutant): 161 ± 272 nM; ∆H (R56A EppA mutant; ITC, R56A mutant, 25 °C): -1.802 kcal/mol and -1.802 ± 0.147 kcal/mol; ∆S (R56A EppA mutant; ITC, R56A mutant, 25 °C): 25 cal mol^−1 K^−1; reduction in EDTA binding (R56A EppA mutant; R56A vs wild-type EppA): 17 fold; Kd (R480A EppA mutant): 40.8 ± 26.5 nM; ∆H (R480A EppA mutant; ITC, R480A mutant, 25 °C): -1.138 kcal/mol and -1.138 ± 0.089 kcal/mol; ∆S (R480A EppA mutant; ITC, R480A mutant, 25 °C): 30 cal mol^−1 K^−1; reduction in EDTA binding (R480A EppA mutant; R480A vs wild-type EppA): 4 fold; Kd (R74A EppA mutant): 249 ± 382 nM; ∆H (R74A EppA mutant; ITC, R74A mutant, 25 °C): -1.877 kcal/mol and -1.877 ± 0.195 kcal/mol; ∆S (R74A EppA mutant; ITC, R74A mutant, 25 °C): 23.9 cal mol^−1 K^−1; reduction in EDTA binding (R74A EppA mutant; R74A vs wild-type EppA): 26 fold; Kd (K470A EppA mutant): 27.1 ± 20.2 nM; ∆H (K470A EppA mutant; ITC, K470A mutant, 25 °C): -1.872 kcal/mol and -1.872 ± 0.117 kcal/mol; ∆S (K470A EppA mutant; ITC, K470A mutant, 25 °C): 28.3 cal mol^−1 K^−1; reduction in EDTA binding (K470A EppA mutant; K470A vs wild-type EppA): 3 fold; binding by EppA (in words) (EppA [2]): binds
10 | O=C(O)CN(CCOCCOCCN(CC(=O)O)CC(=O)O)CC(=O)O [EGTA, ethylene glycol-bis(β-aminoethylether)-N,N,N′,N′-tetraacetic acid, reference compound] | -4.340 kcal/mol and -4.34 ± 0.114 kcal/mol | 16.40 cal mol^−1 K^−1 and 16.4 cal mol^−1 K^−1 |  |  |  |  | 
11 | O=C(O)CN(CCN(CC(=O)O)CC(=O)O)CC(=O)O.[Eu+3] [EuEDTA] |  |  |  | -3.943 ± 0.105 kcal/mol | 7.72 cal mol^−1 K^−1 |  | 
12 | O=C([O-])CN(CCN(CC(=O)[O-])CC(=O)[O-])CC(=O)[O-].[Fe+3] [FeEDTA] | n.b. | n.b. | n.b. |  |  | did not bind | 
13 | O=C(O)CN(CCN(CC(=O)O)CC(=O)O)CC(=O)O.[Mg+2] [MgEDTA] |  |  |  | -4.028 ± 0.037 kcal/mol | 16.2 cal mol^−1 K^−1 |  | 
14 | O=C([O-])CN(CCN(CC(=O)[O-])CC(=O)[O-])CC(=O)[O-].[Ni+2] [NiEDTA] | n.b. | n.b. | n.b. |  |  | did not bind | 
15 | O=C(O)CN(CCN(CC(=O)O)CC(=O)O)CC(=O)O.[Sr+2] [SrEDTA] |  |  |  | -4.392 ± 0.118 kcal/mol | 27.1 cal mol^−1 K^−1 |  | 
16 | O=C(O)CN(CCOCCOCCN(CC(=O)O)CC(=O)O)CC(=O)O.[Sr+2] [SrEGTA] | 0.794 ± 0.164 kcal/mol | 27.1 cal mol^−1 K^−1 |  |  |  |  | 
17 | O=C(O)CN(CCN(CC(=O)O)CC(=O)O)CC(=O)O.[Tb+3] [TbEDTA] |  |  |  | -0.751 ± 0.069 kcal/mol | 18.1 cal mol^−1 K^−1 |  | 
18 | O=C(O)CN(CCN(CC(=O)O)CC(=O)O)CC(=O)O.[Zn] [ZnEDTA] | n.b. | n.b. | n.b. |  |  | did not bind | 
19 | Asp10: decameric polyaspartate (DDDDDDDDDD) [reference compound] | n.b. | n.b. | n.b. ^c |  |  | did not bind | 
20 | MnEDTA | n.b. | n.b. | n.b. |  |  | did not bind | 
